Results reported in patent publication US20240182460A1, “ALLOSTERIC CHROMENONE INHIBITORS OF PHOSPHOINOSITIDE 3-KINASE (PI3K) FOR THE TREATMENT OF DISEASE” (PETRA PHARMA CORPORATION, priority 2022, published 2024).

experiment: Metabolic stability and intrinsic clearance in human liver microsomes (MICS); assay type: in vitro ADME; details: human, microsomes, pH 7.4
Protocol: Metabolic Stability and Intrinsic Clearance in Liver Microsomes (MICS)
One objective of this assay is to measure in vitro metabolic stability of a test compound in liver microsomes of one or more different species. The concentration of a control compound in the reaction system is evaluated by LC/MS/MS for calculating intrinsic clearance of a test compound and estimating the stability of the control compound and test compound in liver microsomes of one or more different species.
Microsomes (MICS). Human Liver Microsomes (HLM), Monkey Liver Microsomes (MKLM), Dog Liver Microsomes (DLM), Rat Liver Microsomes (RLM), and Mouse Liver Microsomes (MLM) are obtained at a concentration of 20 mg/mL protein from commercial sources and stored in a −80° C. freezer. Prior to use, liver microsomes are removed from the freezer and allowed to thaw in a 37° C. water bath and then stored on wet ice.
Stock Solutions. Test Compound (TC) Stock Solutions are prepared in DMSO at a concentration of 10 mM and stored for later use. Positive Control (PC) Stock Solutions of verapamil·HCL (FW: 491.1 g/mol) in DMSO are prepared at a concentration of 10 mM (4.91 mg/mL), and stored at the condition same as the stock solutions of test compounds.
Phosphate Buffer. Phosphate Buffer (100 mM, pH 7.4) is prepared by combining a Solution A and a Solution B as follows.
To prepare Solution A, 7.098 g of disodium hydrogen phosphate was combined with 500 mL of pure water and sonicated to dissolve. To prepare the Solution B, 3.400 g of potassium dihydrogen phosphate was combined with 250 mL of pure water and sonicated to dissolve. Solution A was placed on a stirrer and Solution B was slowly added into Solution A until the pH reached 7.4.
NADPH Solution. A 10 mM NADPH Solution is prepared by dissolving NADPH (MW: 833.4 g/mol) at 8.334 mg/mL in phosphate buffer (100 mM, pH 7.4).
Microsome Master Solution. A Microsome Master Solution is prepared by adding 6.25 μL microsomes (20 mg/mL) to 216.25 μL Phosphate Buffer (100 mM). The final concentration is Phosphate Buffer (100 mM); microsomes (0.5 mg/mL).
Dilution of Stock Solutions. The TC Stock Solutions (10 mM in DMSO) and the PC Stock Solutions (10 mM in DMSO) are diluted by adding 3 μL of the TC Stock Solution or the PC Stock Solution to 297 μL of 50% acetonitrile/50% water.
Incubation. Two separated experiments were performed as follows. a) With Cofactors (NADPH): 25 μL of 10 mM NADPH was added to the incubations. The final concentrations of
microsomes and NADPH were 0.5 mg/mL and 1 mM, respectively. b) Without Cofactors (NADPH): 25 μL of 100 mM Phosphate buffer was added to the incubations. The final concentration of microsomes was 0.5 mg/mL. The mixture was pre-warmed at 37° C. for 10 minutes.
The reaction was started with the addition of 2.5 μL of 100 μM PC solution or TC solutions.
Verapamil was used as PC in this study. The final concentration of test compound or control compound was 1 μM. The incubation solution was incubated in water batch at 37° C.
Reaction Termination. Aliquots of 30 μL were taken from the reaction solution at 0.5, 5, 15, 30 and 60 minutes and added to plates. The reaction was stopped by the addition of 5 volumes of cold acetonitrile and a solution containing 100 nM alprazolam, 200 nM caffeine and 100 nM tolbutamide.
Sampling. The plates containing the terminated reactions were centrifuged at 4000 rpm for 30 minutes. Supernatant of each compound (40 μL) was transferred into a 96-well analysis plate.
Four compound samples are pooled together into one cassette and diluted by adding 160 μL of pure water. All incubations are performed in duplicate.
Analysis and Data Processing. Quantitative LC-MS analysis is performed, and peak areas are determined from extracted ion chromatograms. Percent parent remaining was calculated from peak area of TC or PC. The slope value, k, is determined by linear regression of the natural logarithm of percent parent remaining vs. incubation time curve. […]

Microsomal CLint at 1 μM, < 50 µL/min/mg:
Cc1cc([C@@H](C)Oc2ccc(Cl)nc2-c2noc(=O)[nH]2)c2oc(-c3cnn4c3COCC4)c(C)c(=O)c2c1 [Example 41A, 3-[6-Chloro-3-[(1R)-1-[2-(6,7-dihydro-4H-pyrazolo[5,1-c][1,4]oxazin-3-yl)-3,6-dimethyl-4-oxo-chromen-8-yl]ethoxy]-2-pyridyl]-4H-1,2,4-oxadiazol-5-one]
Cc1cc([C@@H](C)Oc2ccc(Cl)nc2S(N)(=O)=O)c2oc(-c3cccc(C#N)c3)c(C)c(=O)c2c1 [Example 24C, 6-Chloro-3-[(1R)-1-[2-(3-cyanophenyl)-3,6-dimethyl-4-oxo-chromen-8-yl]ethoxy]pyridine-2-sulfonamide]
Cc1cc([C@@H](C)Oc2ccc(Cl)nc2C(N)=O)c2oc(-c3cnccn3)c(C)c(=O)c2c1 [Example 78C, 6-Chloro-3-[(1R)-1-(3,6-dimethyl-4-oxo-2-pyrazin-2-yl-chromen-8-yl)ethoxy]pyridine-2-carboxamide]
Cc1cc([C@@H](C)Oc2ccc(F)c(F)c2C(N)=O)c2oc(-c3cnn(C)c3)c(C)c(=O)c2c1 [Example 31A, 6-[(1R)-1-[3,6-Dimethyl-2-(1-methylpyrazol-4-yl)-4-oxo-chromen-8-yl]ethoxy]-2,3-difluoro-benzamide]
Cc1cc([C@@H](C)Oc2ccc(Cl)nc2C(N)=O)c2oc(-c3cc(C#N)c4nn(C)cc4c3)c(C)c(=O)c2c1 [Example 52C, 6-Chloro-3-[(1R)-1-[2-(7-cyano-2-methyl-indazol-5-yl)-3,6-dimethyl-4-oxo-chromen-8-yl]ethoxy]pyridine-2-carboxamide]
Cc1cc([C@@H](C)Oc2ccc(Cl)nc2S(N)(=O)=O)c2oc(-c3ccc(C#N)cc3)c(C)c(=O)c2c1 [Example 25C, 6-Chloro-3-[(1R)-1-[2-(4-cyanophenyl)-3,6-dimethyl-4-oxo-chromen-8-yl]ethoxy]pyridine-2-sulfonamide]
Cc1cc([C@@H](C)Oc2ccc(Cl)nc2S(N)(=O)=O)c2oc(-c3cnn(C)c3C#N)c(C)c(=O)c2c1 [Example 21C, 6-Chloro-3-[(1R)-1-[2-(5-cyano-1-methyl-pyrazol-4-yl)-3,6-dimethyl-4-oxo-chromen-8-yl]ethoxy]pyridine-2-sulfonamide]
Cc1cc([C@@H](C)Oc2cccnc2C(N)=O)c2oc(-c3ccc4nn(C)cc4c3)c(C)c(=O)c2c1 [Example 10A, 3-[(1R)-1-[3,6-Dimethyl-2-(2-methylindazol-5-yl)-4-oxo-chromen-8-yl]ethoxy]pyridine-2-carboxamide]
Cc1cc([C@@H](C)Oc2ccc(C#N)cc2C(N)=O)c2oc(-c3ccc4nn(C)cc4c3)c(C)c(=O)c2c1 [Example 108C, 5-Cyano-2-[(1R)-1-[3,6-dimethyl-2-(2-methylindazol-5-yl)-4-oxo-chromen-8-yl]ethoxy]benzamide]
Cc1cc([C@@H](C)Oc2ccc(F)nc2S(N)(=O)=O)c2oc(-c3cnc4ccoc4c3)c(C)c(=O)c2c1 [Example 73C, 6-Fluoro-3-[(1R)-1-(2-furo[3,2-b]pyridin-6-yl-3,6-dimethyl-4-oxo-chromen-8-yl)ethoxy]pyridine-2-sulfonamide]
Cc1cc([C@@H](C)Oc2ccc(Cl)nc2S(C)(=N)=O)c2oc(-c3cnn(C)c3)c(C)c(=O)c2c1 (stereo partly drawn) [Example 147A, 8-[(1R)-1-[[6-Chloro-2-(methylsulfonimidoyl)-3-pyridyl]oxy]ethyl]-3,6-dimethyl-2-(1-methylpyrazol-4-yl)chromen-4-one]
Cc1cc([C@@H](C)Oc2ccc(Cl)nc2C(N)=O)c2oc(-c3cnc4oc(C)nc4c3)c(C)c(=O)c2c1 [Example 130A, 6-Chloro-3-[(1R)-1-[3,6-dimethyl-2-(2-methyloxazolo[5,4-b]pyridin-6-yl)-4-oxo-chromen-8-yl]ethoxy]pyridine-2-carboxamide]
Cc1cc([C@@H](C)Oc2ccc(Cl)nc2C(N)=O)c2oc(-c3cnn4cccnc34)c(C)c(=O)c2c1 [Example 16B, 6-Chloro-3-[(1R)-1-(3,6-dimethyl-4-oxo-2-pyrazolo[1,5-a]pyrimidin-3-yl-chromen-8-yl)ethoxy]pyridine-2-carboxamide]
Cc1cc([C@@H](C)Oc2ccc(Cl)nc2S(N)(=O)=O)c2oc(-c3cncnc3)c(C)c(=O)c2c1 [Example 38A, 6-Chloro-3-[(1R)-1-(3,6-dimethyl-4-oxo-2-pyrimidin-5-yl-chromen-8-yl)ethoxy]pyridine-2-sulfonamide]
Cc1cc([C@@H](C)Oc2ccc(Cl)nc2S(N)(=O)=O)c2oc(-c3cnc(C)o3)c(C)c(=O)c2c1 [Example 10C, 6-Chloro-3-[(1R)-1-[3,6-dimethyl-2-(2-methyloxazol-5-yl)-4-oxo-chromen-8-yl]ethoxy]pyridine-2-sulfonamide]
CONC(=O)c1nc(Cl)ccc1O[C@H](C)c1cc(C)cc2c(=O)c(C)c(-c3ccc4nn(CCO)cc4c3)oc12 [Example 135C, 6-Chloro-3-[(1R)-1-[2-[2-(2-hydroxyethyl)indazol-5-yl]-3,6-dimethyl-4-oxo-chromen-8-yl]ethoxy]-N-methoxy-pyridine-2-carboxamide]

same assay, conditions: pH 7.4; human liver microsomes 0.5 mg/mL, 1 μM compound; read-out: intrinsic clearance in human MICS

Microsomal CLint at 1 μM, < 50 µL/min/mg:
Cc1cc([C@@H](C)Oc2ccc(Cl)nc2C(=O)NS(C)(=O)=O)c2oc(-c3ccccc3)c(C)c(=O)c2c1 [Example 6, 6-Chloro-3-[(1R)-1-(3,6-dimethyl-4-oxo-2-phenyl-chromen-8-yl)ethoxy]-N-methylsulfonyl-pyridine-2-carboxamide]
Cc1cc([C@@H](C)Oc2ccccc2-c2noc(=O)[nH]2)c2oc(-c3ccccc3)c(C)c(=O)c2c1 [Example 4, 3-[2-[(1R)-1-(3,6-Dimethyl-4-oxo-2-phenyl-chromen-8-yl)ethoxy]phenyl]-4H-1,2,4-oxadiazol-5-one]
